Source: BindingDB's records for PubMed 35777269 (University of Maryland, 2022)

Biological target: Protein Wnt-3a (Human, UniProt P56704)
Experiment: Inhibition of recombinant human Wnt3a in HEK293 cells assessed as Wnt signalling by measuring reduction in relative luminescence units incubated for 24 hrs by luciferase reporter assay

Chain of Protein Wnt-3a (P56704 whole entry): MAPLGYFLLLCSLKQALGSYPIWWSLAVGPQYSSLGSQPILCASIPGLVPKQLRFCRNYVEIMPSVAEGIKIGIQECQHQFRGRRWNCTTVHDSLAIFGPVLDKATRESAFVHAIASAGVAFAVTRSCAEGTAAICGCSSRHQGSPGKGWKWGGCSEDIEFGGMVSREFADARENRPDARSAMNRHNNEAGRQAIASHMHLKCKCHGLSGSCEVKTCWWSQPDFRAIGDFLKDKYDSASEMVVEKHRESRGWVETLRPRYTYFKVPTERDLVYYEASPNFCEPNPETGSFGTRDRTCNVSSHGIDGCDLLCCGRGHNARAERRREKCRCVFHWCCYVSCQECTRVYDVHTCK

IC50: 4.1 nM
Compound: Cc1ccccc1-n1nnc(C(=O)Nc2ccc3ccccc3n2)c1C
